Reference: ChEMBL document CHEMBL1201862, “PubChem BioAssay data set” (2004)
The source made the active and inactive calls.

Experiments:
[1] = Luminescent dose response cell-based high throughput screening assay for inhibitors of the Janus kinase 2 mutant JAK2V617F. [Related pubchem assays: 1446 (Primary screen.), 1521 (Confirmation assay.), 1486 (Counter screen.)]; assay type: functional
[2] = Trypanosoma cruzi growth suppression in host cells – NIH3T3 host cells, beta-gal luminescence, confirmation (AID 2044); assay type: functional, cell-based;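 also: intracellular parasites grown in NIH/3T3 mouse fibroblasts as host cells; luminescent beta-galactosidase reporter signal from transgenic T. cruzi replicating inside host cells; inhibitors lower the luminescence signal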
[3] = NIH3T3 cell viability loss – ATP luminescence, mouse fibroblasts, counter-screen, dose response (AID 2010); assay type: functional, cell-based;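 also: cells exposed to compound for about 90 hours before reading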
Cytochrome P450 2C19 = Cytochrome P450 2C19 (Homo sapiens, UniProt P33261); assay: Cytochrome panel assay with activity outcomes. Panel member name: p450-cyp2c19 Compounds with AC50 equal or less than 10 uM are considered active; assay type: functional; conditions: read-out: AC50
Cytochrome P450 1A2 = molecular target: T1, Cytochrome P450 1A2 (Homo sapiens, UniProt P05177);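 also: PubChem cytochrome P450 panel assay, CYP1A2 panel member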
T1 sequence (P05177 whole entry): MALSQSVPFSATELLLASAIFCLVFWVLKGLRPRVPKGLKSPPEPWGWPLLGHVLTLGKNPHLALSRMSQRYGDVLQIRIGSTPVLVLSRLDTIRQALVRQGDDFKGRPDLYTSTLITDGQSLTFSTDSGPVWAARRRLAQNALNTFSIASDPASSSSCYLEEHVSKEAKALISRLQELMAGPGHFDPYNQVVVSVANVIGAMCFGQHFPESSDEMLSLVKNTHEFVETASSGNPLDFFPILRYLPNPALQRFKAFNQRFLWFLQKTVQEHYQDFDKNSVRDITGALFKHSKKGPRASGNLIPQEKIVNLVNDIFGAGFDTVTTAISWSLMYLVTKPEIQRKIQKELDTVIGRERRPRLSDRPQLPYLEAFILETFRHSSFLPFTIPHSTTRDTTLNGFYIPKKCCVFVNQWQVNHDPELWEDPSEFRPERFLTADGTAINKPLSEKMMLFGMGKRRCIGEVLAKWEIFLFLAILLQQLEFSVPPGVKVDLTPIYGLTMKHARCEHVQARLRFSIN

[4] = Luminescence Cell-Based Dose Response HTS to Identify Activators of Luciferase Translation or Activity in H4 […] Cells. [Related pubchem assays: 1829 (Project Summary), 1814 (Primary HTS)]; assay type: functional
[5] = viability loss in Vero cells – cytotoxicity control for Vif-APOBEC3G degradation inhibitor project, dose response (AID 1117358); assay type: functional; conditions: Vero
[6] = HPDE-C7 pancreatic duct cell viability loss – fluorescence, HTS (AID 430); assay type: functional, cell-based; conditions: Homo sapiens
[7] = viability loss of HPDE-C7K cells – cell-based, fluorescence, HTS, primary screen (AID 431); assay type: functional; conditions: Homo sapiens
[8] = viability of PTEN-deleted HCT116 cells – cell-based, HCT116 PTEN knockout, dose response (AID 1047); assay type: functional;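 also: HCT116 colon tumor cells with PTEN knocked out; cells exposed to compound for 60 hours before readout; potency for loss of cell viability measured by luminescence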
[9] = viability of HCT116 lacking mutant beta-catenin – cell-based, human colon tumor, dose response (AID 1045); assay type: functional;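 also: HCT116 colon tumor cells with beta catenin knocked out; cells exposed to compound for 60 hours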
[10] = reduction of Shn3 3'UTR-driven luciferase in osteoblasts – cell-based, Clone20 osteoblasts, firefly luciferase, cherry-picked, dose response (AID 624132); assay type: functional;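 also: firefly luciferase luminescence from reporter carrying the Shn3 3'UTR in osteoblasts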
[11] = loss of viability in HepG2 cells – cell-based, CellTiter-Glo, cherry-picked, cytotoxicity control for Shn3 inhibitor project, dose response (AID 624134); assay type: functional
[12] = non-specific 3'UTR reporter inhibition in Clone20-Shn3RL – cell-based, Renilla luciferase, cherry-picked, counter-screen for Shn3 inhibitor project, dose response (AID 624133); assay type: functional
[13] = CCR5-tropic HIV-1 fusion blockers – cell-based, CCR5-tropic Env, dose response (AID 2279); assay type: functional
[14] = molecular target: Protein-tyrosine kinase 2-beta (Homo sapiens, UniProt Q14289);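 also: potency of inhibitors of PYK2 kinase phosphorylation of poly-GT substrate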
Major prion protein = Major prion protein (Homo sapiens, UniProt P04156); assay type: functional, cell-based
[15] = molecular target: NAD-dependent protein deacylase sirtuin-5, mitochondrial (Homo sapiens, UniProt Q9NXA8); assay: sirtuin-5 deacylation blockers, concentration series – biochemical, fluorescence imaging, cherry-pick, set 5, dose response (AID 720591);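 also: desuccinylation of succinyl peptide AMC substrate read as fluorescence after trypsin release; potency of inhibitors that lower fluorescence and may act on trypsin instead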
[16] = CellTiter-Glo luminescence survival assay, SW480 colon tumor line, concentration-response curve, half-maximal inhibitory concentration (AID 1117338); assay type: functional
[17] = RKO cell viability reduction, dose response, CellTiter-Glo luminescence (AID 1117322); assay type: functional
[18] = cytotoxicity toward HCT116 cells – cell-based, CellTiter-Glo luminescence, IC50, dose response (AID 1117332); assay type: functional; conditions: HCT-116
[19] = SNU-C1 cell viability reduction, dose response, CellTiter-Glo luminescence (AID 1117323); assay type: functional, cell-based
[20] = cytotoxicity toward Colo320 cells – cell-based, CellTiter-Glo luminescence, IC50, dose response (AID 1117334); assay type: functional; conditions: COLO 320
[21] = cytotoxicity toward HT-29 cells – cell-based, CellTiter-Glo luminescence, IC50, dose response (AID 1117330); assay type: functional
[22] = Reduced DLD-1 viability, concentration-response, CellTiter-Glo luminescence (AID 1117352); assay type: functional
[23] = HCT116 cell viability decrease, GSK3B pretreatment – CellTiter-Glo, IC50, dose response (AID 1117339); assay type: functional; conditions: HCT-116
[24] = rise of 2N DNA cells, HeLa – IC50, dose response (AID 1117349); assay type: functional, cell-based
[25] = rise of 4N DNA cells, HeLa – IC50, dose response (AID 1117351); assay type: functional, cell-based

## COc1ccc(N2CCc3c(C)nc4c(OC)cc(OC)cc4c32)c(OC)c1
[1]
  IC50: 1.87 µM (active)
[2]
  EC50: 0.839 µM (active)
[3]
  EC50: > 60 µM (not active)
Cytochrome P450 2C19
  AC50: 28.2 µM (inconclusive)
Cytochrome P450 1A2
  AC50: 22.4 µM (inconclusive)

## Cn1ncc2c(Nc3ccc4ccccc4c3)ncnc21
[4]
  EC50: 1.89 µM (active)
[5]
  CC50: > 40 µM (active)

## Cc1cc(C)c(O)c(-c2cc(C(=O)Nc3ccc(S(=O)(=O)N4CCOCC4)cc3)[nH]n2)c1
[6]
  EC50: 9.42 µM (active)
[7]
  EC50: 9.32 µM (active)
[8]
  EC50: 8.35 µM (active)
[9]
  EC50: 10 µM (active)
[10]
  AC50: 5.48 µM (active)
[11]
  AC50: 19.9 µM (active)
[12]
  AC50: 7.37 µM (active)

## CCOc1ccc(CCNC(=O)c2ccc3c(=O)[nH]c4c(C(=O)NC(C)C)sc(=S)n4c3c2)cc1
[13]
  IC50: 30.1 µM (active)

## Cc1cc(NC(=O)CSc2nc(C(C)C)nc3ccccc23)no1
[14]
  IC50: > 69.5 µM (not active)
Major prion protein
  IC50: 0.936 µM (active)
cells
  IC50: > 138 µM (inactive)

## O=C(NCC1(N2CCOCC2)CCCCC1)c1cccc(S(=O)(=O)Nc2ccc(F)cc2)c1
[15]
  AC50: > 30 µM (inactive)

## CCN(CC)C(=O)c1cccnc1 [NIKETHAMIDE]
[16]
  IC50: > 20 µM (inactive)
[17]
  IC50: > 20 µM (inactive)
[18]
  IC50: > 20 µM (inactive)
[19]
  IC50: > 20 µM (inactive)
[20]
  IC50: > 20 µM (inactive)
[21]
  IC50: > 20 µM (inactive)
[22]
  IC50: > 20 µM (inactive)
[23]
  IC50: > 20 µM (inactive)

## CCCN(CCC)C(=O)C(CCC(=O)OCCCN1CCN(CCOC(=O)Cc2c(C)n(C(=O)c3ccc(Cl)cc3)c3ccc(OC)cc23)CC1)NC(=O)c1ccccc1 (stereo not given) [PROGLUMETACIN]
[24]
  IC50: > 10 µM (inactive)
[25]
  IC50: > 10 µM (inactive)

## COc1ccc(-n2nc(CCC(=O)N(C)O)cc2-c2ccc(Cl)cc2)cc1 [TEPOXALIN]
[16]
  IC50: 2.81 µM (active)
[17]
  IC50: 4.11 µM (active)
[18]
  IC50: 6.55 µM (inactive)
[19]
  IC50: 1.75 µM (active)
[20]
  IC50: 0.662 µM (active)
[22]
  IC50: 2.08 µM (active)
